In brackets after ≈: the same amount, converted by molar mass. Where two headings read alike, the source gives them in different places.
Legend:
[1] = test system: C. albicans ATCC 10231; assay: MIC, two-fold serial dilution; details: Candida albicans, ATCC10231, read-out: MIC C. albicans ATCC 10231
[2] = test system: E. coli RCMB 010052; assay: Agar well diffusion, inhibition zone; format: cell-based; details: Escherichia coli
[3] = test system: A. fumigatus RCMB 02568; assay: Agar well diffusion, inhibition zone; format: cell-based; details: Aspergillus fumigatus, RCMB02568, read-out: Mean diameter of inhibition zone (mean ± SEM) A. fumigatus RCMB 02568
[4] = test system: S. typhi ATCC 14028; assay: MIC, two-fold serial dilution; format: cell-based; details: Salmonella enterica, read-out: MIC S. typhi ATCC 14028
[5] = test system: HepG-2 cells; assay: In vitro cytotoxicity, MTT assay, HepG-2; details: Homo sapiens, HepG2, read-out: IC50 HepG-2
[6] = test system: C. albicans ATCC 10231; assay: Agar well diffusion, inhibition zone; format: cell-based; details: Candida albicans, ATCC10231, read-out: Mean diameter of inhibition zone (mean ± SEM) C. albicans ATCC 10231
[7] = test system: S. typhi ATCC 14028; assay: Agar well diffusion, inhibition zone; format: cell-based; details: Salmonella enterica, read-out: Mean diameter of inhibition zone (mean ± SEM) S. typhi ATCC 14028
[8] = test system: S. pneumoniae 010010; assay: MIC, two-fold serial dilution; details: Streptococcus pneumoniae, 010010, read-out: MIC S. pneumoniae 010010
[9] = test system: E. coli RCMB 010052; assay: MIC, two-fold serial dilution; details: Escherichia coli, RCMB010052, read-out: MIC E. coli RCMB 010052
[10] = test system: P. aeruginosa; assay: Agar well diffusion, inhibition zone; format: cell-based; details: Pseudomonas aeruginosa, read-out: Mean diameter of inhibition zone (mean ± SEM) P. aeruginosa
[11] = test system: E. faecalis; assay: MIC, two-fold serial dilution; details: Enterococcus faecalis, read-out: MIC E. faecalis
[12] = test system: S. aureus 25923; assay: MIC, two-fold serial dilution; details: Staphylococcus aureus, 25923, read-out: MIC S. aureus 25923
[13] = test system: S. aureus 25923; assay: Agar well diffusion, inhibition zone; format: cell-based
[14] = test system: S. pneumoniae 010010; assay: Agar well diffusion, inhibition zone; format: cell-based
[15] = test system: MCF-7 cells; assay: In vitro cytotoxicity, MTT assay, MCF-7; details: Homo sapiens, MCF7, read-out: IC50 MCF-7
[16] = test system: A. fumigatus RCMB 02568; assay: MIC, two-fold serial dilution; details: Aspergillus fumigatus, RCMB02568, read-out: MIC A. fumigatus RCMB 02568
[17] = test system: E. faecalis; assay: Agar well diffusion, inhibition zone; format: cell-based; details: Enterococcus faecalis, read-out: Mean diameter of inhibition zone (mean ± SEM) E. faecalis
[18] = test system: P. aeruginosa; assay: MIC, two-fold serial dilution; details: Pseudomonas aeruginosa, read-out: MIC P. aeruginosa
[19] = RCMB010052, read-out: Mean diameter of inhibition zone (mean ± SEM) E. coli RCMB 010052
[20] = Staphylococcus aureus, 25923, read-out: Mean diameter of inhibition zone (mean ± SEM) S. aureus 25923
[21] = Streptococcus pneumoniae, 010010, read-out: Mean diameter of inhibition zone (mean ± SEM) S. pneumoniae 010010

Row | Structure (SMILES) | MIC [1] | zone of inhibition at 500 µg/mL [2, 19] | zone of inhibition at 500 µg/mL [3] | MIC [4] | melting point | IC50 [5] | zone of inhibition at 500 µg/mL [6] | zone of inhibition at 500 µg/mL [7] | MIC [8] | MIC [9] | zone of inhibition at 500 µg/mL [10] | MIC [11] | MIC [12] | zone of inhibition at 500 µg/mL [13, 20] | zone of inhibition at 500 µg/mL [14, 21] | IC50 [15] | MIC [16] | zone of inhibition at 500 µg/mL [17] | MIC [18] | also measured
1 | Cc1c(Nc2nc3c(s2)sc(=S)n3C)c(=O)n(-c2ccccc2)n1C [Compound 5c, 1,5-Dimethyl-4-((4-methyl-5-thioxo-4,5-dihydrothiazolo[4,5-d]thiazol-2-yl)amino)-2-phenyl-1H-pyrazol-3(2H)-one] | 79.4 µM (≈ 30.9 µg/mL) | 25 ± 0.1 mm | 26 ± 0.17 mm | 125 µM (≈ 48.8 µg/mL) | 189 to 191 °C | 11.85 ± 0.03 µM | 19 ± 0.23 mm | 17 ± 0.78 mm | 178 µM (≈ 69.4 µg/mL) | 20.8 µM (≈ 8.08 µg/mL) | 22 ± 0.48 mm | 18.9 µM (≈ 7.35 µg/mL) | 68.8 µM (≈ 26.8 µg/mL) | 20 ± 0.08 mm | 15 ± 0.86 mm | 14.69 ± 0.03 µM | 17.8 µM (≈ 6.95 µg/mL) | 24 ± 0.89 mm | 62.2 µM (≈ 24.2 µg/mL) | –
2 | [H]/N=C(/N)N[C@H]1[C@H](O)[C@@H](O)[C@H](O[C@@H]2O[C@@H](C)[C@](O)(C=O)[C@H]2O[C@@H]2O[C@@H](CO)[C@H](O)[C@@H](O)[C@@H]2NC)[C@@H](N/C(N)=N\[H])[C@@H]1O [Streptomycin, reference compound] | – | – | – | 47.1 µM (≈ 27.4 µg/mL) | – | – | – | 23 ± 0.92 mm | 65.3 µM (≈ 38 µg/mL) | 9.18 µM (≈ 5.34 µg/mL) | – | 19.5 µM (≈ 11.3 µg/mL) | 16.8 µM (≈ 9.74 µg/mL) | – | – | – | – | – | 68.2 µM (≈ 39.7 µg/mL) | zone of inhibition at 500 µg/mL ([2]; RCMB010052, well diffusion agar, 0.5 mg/mL, read-out: Mean diameter of inhibition zone (mean ± SEM) E. coli RCMB 010052): 27 ± 0.56 mm; zone of inhibition at 500 µg/mL ([10]; well diffusion agar, 0.5 mg/mL): 20 ± 0.53 mm; zone of inhibition at 500 µg/mL ([13]; Staphylococcus aureus, 25923, well diffusion agar, 0.5 mg/mL, read-out: Mean diameter of inhibition zone (mean ± SEM) S. aureus 25923): 26 ± 0.45 mm; zone of inhibition at 500 µg/mL ([14]; Streptococcus pneumoniae, 010010, well diffusion agar, 0.5 mg/mL, read-out: Mean diameter of inhibition zone (mean ± SEM) S. pneumoniae 010010): 22 ± 0.81 mm; zone of inhibition at 500 µg/mL ([17]; well diffusion agar, 0.5 mg/mL): 25 ± 0.38 mm
3 | Cc1c(Nc2nc3c(s2)sc(=S)n3-c2ccc(Cl)cc2)c(=O)n(-c2ccccc2)n1C [Compound 5d, 4-((4-(4-Chlorophenyl)-5-thioxo-4,5-dihydrothiazolo[4,5-d]thiazol-2-yl)amino)-1,5-dimethyl-2-phenyl-1H-pyrazol-3(2H)-one] | – | 15 ± 0.04 mm | – | – | 211 to 213 °C | 81.5 ± 0.03 µM | – | – | – | 118 µM (≈ 57.4 µg/mL) | 13 ± 0.11 mm | – | 18.9 µM (≈ 9.17 µg/mL) | 25 ± 0.13 mm | – | 88.56 ± 0.01 µM | – | – | 180 µM (≈ 87.6 µg/mL) | –
4 | Cc1c(Nc2nc3c(C(N)=S)c(N)sc3s2)c(=O)n(-c2ccccc2)n1C [Compound 3d, 5-Amino-2-((1,5-dimethyl-3-oxo-2-phenyl-2,3-dihydro-1H-pyrazol-4-yl)amino) thieno[3,2-d]thiazole-6-carbothioamide] | 132 µM (≈ 55.1 µg/mL) | 22 ± 0.14 mm | 19 ± 0.45 mm | 121 µM (≈ 50.6 µg/mL) | 297 to 299 °C | 16.91 ± 0.01 µM | 16 ± 0.28 mm | 18 ± 0.13 mm | 16.2 µM (≈ 6.74 µg/mL) | 71.8 µM (≈ 29.9 µg/mL) | 20 ± 0.19 mm | 75.5 µM (≈ 31.4 µg/mL) | 181 µM (≈ 75.4 µg/mL) | 13 ± 0.95 mm | 28 ± 0.45 mm | 18.19 ± 0.01 µM | 118 µM (≈ 49.1 µg/mL) | 22 ± 0.11 mm | 67 µM (≈ 27.9 µg/mL) | –
5 | CCn1c(=S)sc2sc(Nc3c(C)n(C)n(-c4ccccc4)c3=O)nc21 [Compound 5b, 4-((4-Ethyl-5-thioxo-4,5-dihydrothiazolo[4,5-d]thiazol-2-yl)amino)-1,5-dimethyl-2-phenyl-1H-pyrazol-3(2H)-one] | 185 µM (≈ 74.7 µg/mL) | 10 ± 0.42 mm | – | – | 183 to 185 °C | 48.04 ± 0.03 µM | 12 ± 0.07 mm | – | 15.9 µM (≈ 6.4 µg/mL) | 193 µM (≈ 78 µg/mL) | 18 ± 0.95 mm | 15.2 µM (≈ 6.13 µg/mL) | 135 µM (≈ 54.6 µg/mL) | 16 ± 0.88 mm | 28 ± 0.12 mm | 43.94 ± 0.02 µM | – | 27 ± 0.41 mm | 122 µM (≈ 49.1 µg/mL) | –

From PMC8694192, “Synthesis and biological evaluation of new derivatives of thieno-thiazole and dihydrothiazolo-thiazole scaffolds integrated with a pyrazoline nucleus as anticancer and multi-targeting kinase inhibitors” (RSC Advances, 2021)
